Data published in patent US20260200965A1, “NOVEL COMPOUND DERIVED FROM LORANTHUS TANAKAE AND ANTICANCER USE THEREOF” (KOREA INSTITUTE OF ORIENTAL MEDICINE, priority 2022, published 2026).
“And” between values parts separate entries of the source, which are not always exact repeats. Equal values may be shown once.

Columns and labels:
[1] = test system: NHDF (normal human dermal fibroblast) cells; experiment: Toxicity test in normal cells (WST-8); type: cell-based
Protocol: NHDF (normal human dermal fibroblast; ATCC, USA) cells were seeded at about 5,000 cells per well in a 96-well plate and stabilized for 24 hours, and then treated with Lotanoside B isolated in Example 2 at various concentrations (0, 6.25, 12.5, 25, or 50 μM). As a control group, 5-FU (anticancer drug) and kaempferol were treated at various concentrations (5-FU: 0, 1.25, 2.5, 5 or 10 μM; kaempferol: 0, 5, 10, 20 or 40 μM). After culturing in a CO2 incubator for 48 hours, WST-8 ((2-(2-methoxy-4-nitrophenyl)-3-(4-nitrophenyl)-5-(2,4-disulfophenyl)-2H-tetrazolium, monosodium salt) reagent was treated, and after culturing for 2 hours, the optical density (OD) was measured at a wavelength of 450 nm by using a microplate reader.

[2] = test system: DMBA/TPA-induced skin cancer; type: in vivo, ICR mice
Protocol: Female ICR mice (5 weeks old, 20~25 g) were purchased as experimental animals from Samtaco Co., Ltd. (Osan, Korea), and were provided with water and food freely in a cage equipped with a constant temperature and humidity device. After a one-week adaptation period, the hair on the back of the mice was removed, and they were divided into six groups as shown in Table 1 and raised for 20 weeks.
When DMBA (7,12-Dimethylbenz[a]anthracene), which induces carcinogenesis, is treated to the depilated area and TPA (12-Otetradecanoylphorbol-13-acetate, promoter) is continuously applied, skin inflammation and skin cancer are induced. […] TPA, Lotanoside B and 5-FU were diluted in acetone and topically treated to the back area twice a week, and the number and size of the tumors formed and the weight of the mice were measured.

[3] = test system: mouse skin epithelial cell JB6; experiment: EGF-induced cell transformation colony growth inhibition (soft agar); type: cell-based; conditions: EGF 10 ng/ml, JB6 colonies, about 2 weeks
Protocol: (§1) The carcinogenicity inhibitory effect of the extract of Loranthus tanakae Franch. & Sav was determined in a carcinogenic model in which the mouse skin epithelial cell JB6 (ATCC, USA) was treated with EGF, which is a growth factor that increases cancer cell occurrence, and TPA, which is a tumor-promoting factor, to induce malignant transformation.
(§2) Specifically, agar mix (0.5%) including BME, FBS, glutamine, gentamicin, PBS and 1.25% agar, EGF (10 ng/ml) or TPA (10 ng/ml) and the 70% ethanol extract of Loranthus tanakae Franch. & Sav prepared in Example 1-1 were mixed, dispensed into 6-well plates at 3 mL per well, and solidified (bottom agar). Mouse skin epithelial cells JB6 (ATCC, USA) were detached by trypsin treatment, washed with 1×PBS, and resuspended in 10% BME to determine the cell number. 8,000 cells were prepared per well, and agar mix (0.3%), EGF or TPA and the 70% ethanol extract of Loranthus tanakae Franch. & Sav prepared in Example 1-1 were mixed, dispensed into 1 mL per well, and solidified (upper agar). After culturing in a CO2 incubator for about 2 weeks, colonies were photographed under a microscope, and the number of colonies was counted by using Image-Pro Plus software (v.6.0) program (Media Cybernetics, Silver Spring, MD, USA).

[4] = test system: SKMEL-5 melanoma cancer cells; experiment: Cancer cell growth inhibition (WST-8 assay); type: cell-based
Protocol: SKMEL-5 melanoma cancer cells (ATCC, USA) were dispensed into a 96-well plate at 1,000 cells per well and stabilized for 24 hours, and then treated with Lotanoside B at different concentrations (0, 6.25, 12.5, 25 or 50 μM). As a control group, 5-FU (anticancer drug) and kaempferol were treated at different concentrations, respectively (5-FU: 0, 1.25, 2.5, 5 or 10 μM; kaempferol: 0, 5, 10, 20 or 40 μM). Afterwards, the cells were cultured in a CO2 incubator for 72 hours, and then treated with WST-8 ((2-(2-methoxy-4-nitrophenyl)-3-(4-nitrophenyl)-5-(2,4-disulfophenyl)-2H-tetrazolium, monosodium salt) reagent, and after culturing for about 2 hours, the optical density (OD) was measured at a wavelength of 450 nm by using a microplate reader.

[5] = test system: mouse skin epithelial cell JB6; experiment: TPA-induced cell transformation colony growth inhibition (soft agar); type: cell-based; conditions: TPA 10 ng/ml, JB6 colonies, about 2 weeks
Protocol: as §1, §2

[6] = 0.1 and 1 μmole topical twice a week, 20 weeks, vs DMBA/TPA group, reduction greater at 1 μmole

O=c1[nH]cc(F)c(=O)[nH]1 [5-FU, fluorouracil]
concentration at which toxicity begins to show ([1]; human, 48 h): 10 µM

COc1cc(O)c2c(=O)c(OC3OC(C)C(O)C(O)C3O)c(-c3ccc(OC4OC(COC(=O)/C=C/c5ccccc5)C(O)C(O)C4O)c(O)c3)oc2c1 (stereo not drawn) [Lotanoside B, rhamnetin-3-O-rhamnoside-4′-O-(6″-O-cinnamoyl)-glucoside]
number of tumors [2, 6]: decreased | tumor area [2, 6]: decreased | tumor incidence [2, 6]: decreased | effect in inhibiting skin cancer formation compared to 5-FU ([2]; 5-FU 0.1 μmole as positive control): superior effect in inhibiting skin cancer formation compared to 5-FU | inhibition at 50 µM ([3]; Mus musculus, Epithelial cell, 336 h, 50 μM, read-out: inhibition rate compared to the EGF treatment group): 66.7% | concentration at which toxicity begins to show ([1]; human, 48 h): > 50 µM | IC50 ([4]; Homo sapiens, SK-MEL-5, SKMEL-5, 72 hours, WST-8): 32.1 µM | cancer cell growth inhibition effect compared to kaempferol ([4]; SKMEL-5, 72 hours, WST-8): superior cancer cell growth inhibition effect compared to kaempferol | cancer cell growth inhibition effect ([4]; SKMEL-5, at a concentration that did not exhibit toxicity): 78.5% | inhibition rate compared to the TPA treatment group ([5]; 50 μM): 76.2% | inhibition at 50 µM ([5]; Mus musculus, Epithelial cell, 336 h, 50 μM, read-out: inhibition rate compared to the TPA treatment group): 74.2%

O=c1c(O)c(-c2ccc(O)cc2)oc2cc(O)cc(O)c12 [kaempferol]
concentration at which toxicity begins to show ([1]; NHDF, 48 hours, WST-8): 40 µM

COc1cc(O)c2c(=O)c(OC3OC(CO)C(O)C(O)C3O)c(-c3ccc(O)c(O)c3)oc2c1 (stereo not drawn) [rhamnetin-3-O-glucoside]
inhibition rate compared to the EGF treatment group ([3]; test concentration not given): 92.9% | inhibition rate compared to the TPA treatment group ([5]; test concentration not given): 76.2% and 74.2%
